The values below come from US20160002247A1, “8-SUBSTITUTED IMIDAZOPYRIMIDINONE DERIVATIVE HAVING AUTOTAXIN INHIBITORY ACTIVITY” (THE UNIVERSITY OF TOKYO, priority 2013, published 2016).

Some results are limits rather than exact numbers.

One assay addresses T1, Human autotaxin enzyme (Homo sapiens, UniProt Q13822).
T1 construct: purchased R&D System
The experiment in a line: Evaluation of autotaxin inhibitor, Method C (Test Example 3): 18:0 Lyso PC, choline assay, Resorufin fluorescence. The class given is biochemical. To be noted: Assay Method C, human autotaxin, 18:0 Lyso PC substrate; read-out: Inhibitory Activity. An outline of the steps: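 Choline-coupled fluorescence readout (20 min, resorufin at 531/598 nm) followed a 2 h room-temperature reaction of human autotaxin with 18:0 Lyso PC substrate (added as 200 μM solution) in pH 7.5 Tris buffer containing MgCl2 and Triton X-100. Percent inhibition scaled to no-compound (0%) and no-enzyme (100%) wells and plotted versus concentration.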
In the case of `NC(=O)CNC(=O)Cc1cn(CCCC(F)(F)F)c2nc(-c3ccc(Cl)cc3)cn2c1=O` [Compound 841], the IC50 was > 1000 nM.

As to `O=C(Cc1cn(CCCC(F)(F)F)c2nc(-c3ccc(Cl)cc3)cn2c1=O)NCc1cc(=O)[nH]o1` [Compound 842], the IC50 lay in the range of 100 to 1000 nM.

For `O=C(Cc1cn(CCCC(F)(F)F)c2nc(-c3ccc(Cl)cc3)cn2c1=O)NCCO` [Compound 843], the IC50 is > 1000 nM.

On to `O=C(Cc1cn(CCCC(F)(F)F)c2nc(-c3ccc(Cl)cc3)cn2c1=O)NCC(O)CO` (stereo not shown) [Compound 844], for which the IC50 is > 1000 nM.

As for `CONC(=O)Cc1cn(CCCC(F)(F)F)c2nc(-c3ccc(Cl)cc3)cn2c1=O` [Compound 845], the IC50 lay in the range of 100 to 1000 nM.

As for `O=C(Cc1cn(CCCC(F)(F)F)c2nc(-c3ccc(Cl)cc3)cn2c1=O)NC1COC1` [Compound 846], the IC50 was > 1000 nM.

As to `O=C1CN(C(=O)Cc2cn(CCCC(F)(F)F)c3nc(-c4ccc(Cl)cc4)cn3c2=O)CCN1` [Compound 847], the IC50 is > 1000 nM.

For `O=C(Cc1cn(CCCC(F)(F)F)c2nc(-c3ccc(Cl)cc3)cn2c1=O)N[C@@H](CO)Cc1ccccc1` [Compound 848], the IC50 was > 1000 nM.

As for `CS(=O)(=O)CCNC(=O)Cc1cn(CCCC(F)(F)F)c2nc(-c3ccc(Cl)cc3)cn2c1=O` [Compound 849], the IC50 is > 1000 nM.

With `C[C@@H]1COC[C@H](C)N1C(=O)Cc1cn(CCCC(F)(F)F)c2nc(-c3ccc(Cl)cc3)cn2c1=O` [Compound 850], the IC50 was 100 to 1000 nM.

`CNC(=O)Cc1cn(CCCC(F)(F)F)c2nc(-c3ccc(Cl)cc3)cn2c1=O` [Compound 851]: the IC50 was 100 to 1000 nM.

`O=C(Cc1cn(CCCC(F)(F)F)c2nc(-c3ccc(Cl)cc3)cn2c1=O)N[C@H]1CCN(C2COC2)C1` [Compound 852]: the IC50 is > 1000 nM.

For `O=C(Cc1cn(CCCC(F)(F)F)c2nc(-c3ccc(Cl)cc3)cn2c1=O)N1CCN(CCO)CC1` [Compound 853], the IC50 was > 1000 nM.

Consider `CN(CC(O)CO)C(=O)Cc1cn(CCCC(F)(F)F)c2nc(-c3ccc(Cl)cc3)cn2c1=O` (stereo not shown) [Compound 854], for which the IC50 is > 1000 nM.

Consider `NS(=O)(=O)CCNC(=O)Cc1cn(CCCC(F)(F)F)c2nc(-c3ccc(Cl)cc3)cn2c1=O` [Compound 855], for which the IC50 was > 1000 nM.

For the compound `CC(=O)CNC(=O)Cc1cn(CCCC(F)(F)F)c2nc(-c3ccc(Cl)cc3)cn2c1=O` [Compound 856], the IC50 was > 1000 nM.

Turning to `CC(C)(O)CNC(=O)Cc1cn(CCCC(F)(F)F)c2nc(-c3ccc(Cl)cc3)cn2c1=O` [Compound 857], the IC50 was > 1000 nM.

On to `O=C(Cc1cn(CCCC(F)(F)F)c2nc(-c3ccc(Cl)cc3)cn2c1=O)NCc1nn[nH]n1` [Compound 858], for which the IC50 is 10 to 100 nM.

For `N#CC(NC(=O)Cc1cn(CCCC(F)(F)F)c2nc(-c3ccc(Cl)cc3)cn2c1=O)C(N)=O` (stereo not shown) [Compound 859], the IC50 was > 1000 nM.

For the compound `O=C1CCN(C(=O)Cc2cn(CCCC(F)(F)F)c3nc(-c4ccc(Cl)cc4)cn3c2=O)C1` [Compound 860], the IC50 was 100 to 1000 nM.

Consider `CCC(CO)(CO)NC(=O)Cc1cn(CCCC(F)(F)F)c2nc(-c3ccc(Cl)cc3)cn2c1=O` [Compound 861], for which the IC50 lay within 10 to 100 nM.

Turning to `N#CC1CN(C(=O)Cc2cn(CCCC(F)(F)F)c3nc(-c4ccc(Cl)cc4)cn3c2=O)CCO1` (stereo not shown) [Compound 862], the IC50 lay in the range of 10 to 100 nM.

Take `Cc1noc(CNC(=O)Cc2cn(CCCC(F)(F)F)c3nc(-c4ccc(Cl)cc4)cn3c2=O)n1` [Compound 863]: the IC50 fell in the range of 100 to 1000 nM.

As to `CS(=O)(=O)CCOCCNC(=O)Cc1cn(CCCC(F)(F)F)c2nc(-c3ccc(Cl)cc3)cn2c1=O` [Compound 864], the IC50 was > 1000 nM.

`O=C(Cc1cn(CCCC(F)(F)F)c2nc(-c3ccc(Cl)cc3)cn2c1=O)N1CCOCC1` [Compound 865]: the IC50 lay in the range of 100 to 1000 nM.

Take `O=C(Cc1cn(CCCC(F)(F)F)c2nc(-c3ccc(Cl)cc3)cn2c1=O)N[C@H](CO)Cc1ccccc1` [Compound 866]: the IC50 was > 1000 nM.

On to `C[C@H]1CCCCN1C(=O)Cc1cn(CCCC(F)(F)F)c2nc(-c3ccc(Cl)cc3)cn2c1=O` [Compound 867], for which the IC50 fell in the range of 10 to 100 nM.

The target in another assay is T1, Human autotaxin enzyme. Briefly: Evaluation of autotaxin inhibitor, Method B (Test Example 2): TG-mTMP fluorescence. The class given is biochemical. To be noted: Assay Method: Method B (Test Example 2); read-out: Inhibitory Activity (Enzyme Inhibitory Activity, IC50). The procedure: (Method B) Evaluation of Autotaxin Inhibitor
Solution A containing 25 mM Tris-HCl buffer (pH7.5), 100 mM NaCl, 5 mM MgCl2 and 0.1% BSA was prepared. Human autotaxin enzyme (purchased from R&D System) was diluted with Solution A, and 5 μL of which was added to a solution of test compound in DMSO. Furthermore, 5 μl of 0.5 μM TG-mTMP in Solution A was added and allowed to react at room temperature for 2 hours. 5 μl of 150 mM EDTA in Solution A was added to quench the reaction, and the fluorescent dye TokyoGreen, which was produced by the reaction, was detected. The fluorescence was detected using ViewLux (PerkinElmer, Inc.) with an excitation wavelength of 480 nm and a fluorescence wavelength of 540 nm.
`CCCCn1c(C)cc(=O)n2cc(-c3ccc(Cl)cc3)nc12` [Compound 7]: the IC50 lay in the range of 10 to 100 nM.

Turning to `CCCCCCn1c(C)cc(=O)n2cc(-c3ccc(Cl)cc3)nc12` [Compound 8], the IC50 was in the range of 10 to 100 nM.

In the case of `Cc1cc(=O)n2cc(-c3ccc(Cl)cc3)nc2n1Cc1ccccc1` [Compound 13], the IC50 fell in the range of 10 to 100 nM.

Consider `CCCCCn1c(C)cc(=O)n2cc(-c3ccc(Br)cc3)nc12` [Compound 18], for which the IC50 was < 10 nM.

On to `CCOCCn1c(C)cc(=O)n2cc(-c3ccc(Cl)cc3)nc12` [Compound 26], for which the IC50 is 10 to 100 nM.

`CCC(=O)Cn1c(C)cc(=O)n2cc(-c3ccc(Cl)cc3)nc12` [Compound 28]: the IC50 was in the range of 10 to 100 nM.

On to `CC(=O)OCCn1c(C)cc(=O)n2cc(-c3ccc(Cl)cc3)nc12` [Compound 29], for which the IC50 was in the range of 10 to 100 nM.

Consider `CCCC(O)Cn1c(C)cc(=O)n2cc(-c3ccc(Cl)cc3)nc12` (stereo not shown) [Compound 42], for which the IC50 lay in the range of 10 to 100 nM.

In the case of `C=CCCCn1c(C)cc(=O)n2cc(-c3ccc(Cl)cc3)nc12` [Compound 43], the IC50 fell in the range of 10 to 100 nM.

With `CCC/C=C/n1c(C)cc(=O)n2cc(-c3ccc(Cl)cc3)nc12` [Compound 44], the IC50 was in the range of 10 to 100 nM.

With `Cc1cc(=O)n2cc(-c3ccc(Cl)cc3)nc2n1CCCCCO` [Compound 45], the IC50 lay within 100 to 1000 nM.

Regarding `Cc1cc(=O)n2cc(-c3ccc(Cl)cc3)nc2n1CC(=O)C1CC1` [Compound 50], the IC50 fell in the range of 100 to 1000 nM.

Turning to `CCC(=O)C(C)n1c(C)cc(=O)n2cc(-c3ccc(Cl)cc3)nc12` (stereo not shown) [Compound 51], the IC50 lay within 10 to 100 nM.

Take `Cc1cc(=O)n2cc(-c3ccc(Cl)cc3)nc2n1Cc1ccccc1F` [Compound 53]: the IC50 lay in the range of 10 to 100 nM.

Regarding `Cc1cc(=O)n2cc(-c3ccc(Cl)cc3)nc2n1C(C)c1ccccc1` (stereo not shown) [Compound 54], the IC50 lay within 10 to 100 nM.

On to `Cc1cc(=O)n2cc(-c3ccc(Cl)cc3)nc2n1CCC(F)=C(F)F` [Compound 55], for which the IC50 was 10 to 100 nM.

As to `CCCC(C)n1c(C)cc(=O)n2cc(-c3ccc(Cl)cc3)nc12` (stereo not shown) [Compound 56], the IC50 lay within 10 to 100 nM.

Consider `Cc1cc(=O)n2cc(-c3ccc(Cl)cc3)nc2n1CC1CCCC1` [Compound 57], for which the IC50 lay within 10 to 100 nM.

As for `Cc1cc(=O)n2cc(-c3ccc(Cl)cc3)nc2n1CC1CCCCC1` [Compound 58], the IC50 is 10 to 100 nM.

As to `Cc1cc(=O)n2cc(-c3ccc(Cl)cc3)nc2n1CCCC(F)(F)F` [Compound 59], the IC50 was in the range of 10 to 100 nM.

Consider `Cc1cccc(Cn2c(C)cc(=O)n3cc(-c4ccc(Cl)cc4)nc23)c1` [Compound 60], for which the IC50 lay within 100 to 1000 nM.

Turning to `CC(=O)CCCn1c(C)cc(=O)n2cc(-c3ccc(Cl)cc3)nc12` [Compound 61], the IC50 was 100 to 1000 nM.

As to `CCN(CC)C(=O)Cn1c(C)cc(=O)n2cc(-c3ccc(Cl)cc3)nc12` [Compound 62], the IC50 fell in the range of 100 to 1000 nM.

Take `Cc1ccccc1Cn1c(C)cc(=O)n2cc(-c3ccc(Cl)cc3)nc12` [Compound 64]: the IC50 lay within 100 to 1000 nM.

Turning to `Cc1cc(=O)n2cc(-c3ccc(Cl)cc3)nc2n1CCC(F)(F)F` [Compound 65], the IC50 lay in the range of 100 to 1000 nM.

For the compound `Cc1cc(=O)n2cc(-c3ccc(Cl)cc3)nc2n1CC1CC1` [Compound 66], the IC50 was in the range of 10 to 100 nM.

In the case of `Cc1ccc(Cn2c(C)cc(=O)n3cc(-c4ccc(Cl)cc4)nc23)cc1` [Compound 67], the IC50 lay within 10 to 100 nM.

In the case of `Cc1cc(=O)n2cc(-c3ccc(Cl)cc3)nc2n1CC(=O)NC(C)C` [Compound 68], the IC50 was > 1000 nM.

For the compound `Cc1cc(=O)n2cc(-c3ccc(Cl)cc3)nc2n1CC(=O)C1CCCCC1` [Compound 69], the IC50 is > 1000 nM.

Take `Cc1cc(=O)n2cc(-c3ccc(Cl)cc3)nc2n1CCN(C)C` [Compound 70]: the IC50 was in the range of 100 to 1000 nM.

Turning to `CCC(C)Cn1c(C)cc(=O)n2cc(-c3ccc(Cl)cc3)nc12` (stereo not shown) [Compound 71], the IC50 fell in the range of 10 to 100 nM.

Take `Cc1cc(=O)n2cc(-c3ccc(Cl)cc3)nc2n1CC(=O)OC(C)C` [Compound 72]: the IC50 was in the range of 10 to 100 nM.

Consider `Cc1cc(=O)n2cc(-c3ccc(Cl)cc3)nc2n1CC(=O)OC(C)(C)C` [Compound 73], for which the IC50 lay in the range of 10 to 100 nM.

Take `Cc1cc(=O)n2cc(-c3ccc(Cl)cc3)nc2n1C(C)C(=O)OC(C)(C)C` (stereo not shown) [Compound 74]: the IC50 fell in the range of 100 to 1000 nM.

For `CCN(CC)CCn1c(C)cc(=O)n2cc(-c3ccc(Cl)cc3)nc12` [Compound 75], the IC50 fell in the range of 100 to 1000 nM.

Consider `Cc1cc(=O)n2cc(-c3ccc(Cl)cc3)nc2n1CCOC(C)C` [Compound 76], for which the IC50 lay within 100 to 1000 nM.

As for `Cc1cc(=O)n2cc(-c3ccc(Cl)cc3)nc2n1CC1CCC1` [Compound 77], the IC50 was in the range of 10 to 100 nM.

As to `Cc1cc(=O)n2cc(-c3ccc(Cl)cc3)nc2n1CC(C)C` [Compound 78], the IC50 fell in the range of 10 to 100 nM.

The assay is the same for the next values; noted with them: Inhibitory Activity (Enzyme Inhibitory Activity, IC50), Assay Method: Method B (Test Example 2).
As to `CCCCCn1c(C)cc(=O)n2cc(-c3ccc(Cl)cc3)nc12` [Compound 3, 2-(4-chlorophenyl)-7-methyl-8-pentyl-imidazo[1,2-a]pyrimidin-5(8H)-one], the IC50 is < 10 nM.

Take `CCOC(=O)Cn1c(C)cc(=O)n2cc(-c3ccc(Cl)cc3)nc12` [Compound 20]: the IC50 was < 10 nM.
